# Laboratory results taken from publication PMC10107027 (RSC Advances, 2023).
# Molecular target: T1, Neutrophil elastase enzyme (HNE) (Homo sapiens, UniProt P08246)
# T1 sequence (P08246 30-267): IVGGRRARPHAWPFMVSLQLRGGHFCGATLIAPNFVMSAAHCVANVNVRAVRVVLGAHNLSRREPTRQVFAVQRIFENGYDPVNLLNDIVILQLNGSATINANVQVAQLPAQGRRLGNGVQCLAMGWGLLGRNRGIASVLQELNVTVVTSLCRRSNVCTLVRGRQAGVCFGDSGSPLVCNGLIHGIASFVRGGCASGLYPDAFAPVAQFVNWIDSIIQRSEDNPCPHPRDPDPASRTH
# Assay: Neutrophil elastase inhibitor activity
# Format: biochemical
# Details: read-out: Degree of HNE inhibition (Mean)
Compound,inhibition at 0.1 µM [%],inhibition at 1 µM [%],inhibition at 10 µM [%],inhibition at 50 µM [%],inhibition at 100 µM [%]
"NC(=S)NNC(=O)CC1C(=O)c2ccccc2C1=O [IDC2, 2-(2-(1,3-Dioxo-2,3-dihydro-1H-inden-2-yl)acetyl)hydrazine-1-carbothioamide]",16.3,18.9,21.5,24.8,28.8
"O=C(CC1C(=O)c2ccccc2C1=O)NNC(=S)N=Cc1cccc([N+](=O)[O-])c1 [IDC7, 2-(2-(1,3-Dioxo-2,3-dihydro-1H-inden-2-yl)acetyl)-N-(3-nitrobenzylidene)hydrazine-1-carbothioamide]",12,16.7,24.6,25.8,26.7
"NNC(=O)CC1C(=O)c2ccccc2C1=O [IDH1, 2-(1,3-Dioxo-2,3-dihydro-1H-inden-2-yl)acetohydrazide]",18.6,21.6,28.7,30.1,36.5
"CC(C)(C)C(=O)Oc1ccc(S(=O)(=O)Nc2ccccc2C(=O)NCC(=O)O)cc1 [Sivelestat, reference compound]",96.2,98.5,98.6,98.5,99.8
